Measured values taken from ChEMBL document CHEMBL1201861, “Genomics of Drug Sensitity in Cancer screening data, Wellcome Trust Sanger Institute”.

What was measured:
Test in all cases: cells
U-118-MG = format: functional, cell-based, Homo sapiens; settings: Homo sapiens, U-118-MG
Description: SANGER: Inhibition of human U-118-MG cell growth in a cell viability assay.

SK-MEL3 = format: functional, cell-based, Homo sapiens, SK-MEL-3; settings: Homo sapiens, SK-MEL3
Description: SANGER: Inhibition of human SK-MEL-3 cell growth in a cell viability assay.

SW1417 = format: functional, cell-based, Homo sapiens; settings: Homo sapiens, SW1417
Description: SANGER: Inhibition of human SW1417 cell growth in a cell viability assay.

NCI-H358 = format: functional, cell-based, Homo sapiens; settings: Homo sapiens, NCI-H358
Description: SANGER: Inhibition of human NCI-H358 cell growth in a cell viability assay.

ABC-1 = format: functional, cell-based, Homo sapiens; settings: Homo sapiens, ABC-1
Description: SANGER: Inhibition of human ABC-1 cell growth in a cell viability assay.

MLMA = format: functional, cell-based, Homo sapiens; settings: Homo sapiens, MLMA
Description: SANGER: Inhibition of human MLMA cell growth in a cell viability assay.

NCI-H23 = format: functional, cell-based, Homo sapiens; settings: Homo sapiens, NCI-H23
Description: SANGER: Inhibition of human NCI-H23 cell growth in a cell viability assay.

NB6 = format: functional, cell-based, Homo sapiens; settings: Homo sapiens, NB6
Description: SANGER: Inhibition of human NB6 cell growth in a cell viability assay.

SK-N-FI = format: functional, cell-based, Homo sapiens; settings: Homo sapiens, SK-N-FI
Description: SANGER: Inhibition of human SK-N-FI cell growth in a cell viability assay.

HDLM-2 = format: functional, cell-based; settings: Homo sapiens
Description: SANGER: Inhibition of human HDLM-2 cell growth in a cell viability assay.

CCRF-CEM = format: functional, cell-based; settings: Homo sapiens
Description: SANGER: Inhibition of human CCRF-CEM cell growth in a cell viability assay.

SW1463 = format: functional, cell-based, Homo sapiens; settings: Homo sapiens, SW1463
Description: SANGER: Inhibition of human SW1463 cell growth in a cell viability assay.

SNU-387 = format: functional, cell-based, Homo sapiens; settings: Homo sapiens, SNU-387
Description: SANGER: Inhibition of human SNU-387 cell growth in a cell viability assay.

OVCAR-8 = format: functional, cell-based, Homo sapiens; settings: Homo sapiens, OVCAR-8
Description: SANGER: Inhibition of human OVCAR-8 cell growth in a cell viability assay.

NCI-H209 = format: functional, cell-based; settings: Homo sapiens
Description: SANGER: Inhibition of human NCI-H209 cell growth in a cell viability assay.

U2OS = format: functional, cell-based, Homo sapiens, U-2-OS; settings: Homo sapiens, U2OS
Description: SANGER: Inhibition of human U-2-OS cell growth in a cell viability assay.

KYSE-180 = format: functional, cell-based, Homo sapiens; settings: Homo sapiens, KYSE-180
Description: SANGER: Inhibition of human KYSE-180 cell growth in a cell viability assay.

TE-10 = format: functional, cell-based, Homo sapiens; settings: Homo sapiens, TE-10
Description: SANGER: Inhibition of human TE-10 cell growth in a cell viability assay.

NCI-H1355 = format: functional, cell-based, Homo sapiens; settings: Homo sapiens, NCI-H1355
Description: SANGER: Inhibition of human NCI-H1355 cell growth in a cell viability assay.

TE-5 = format: functional, cell-based, Homo sapiens; settings: Homo sapiens, TE-5
Description: SANGER: Inhibition of human TE-5 cell growth in a cell viability assay.

GAMG = format: functional, cell-based, Homo sapiens; settings: Homo sapiens, GAMG
Description: SANGER: Inhibition of human GAMG cell growth in a cell viability assay.

IST-MES1 = format: functional, cell-based, Homo sapiens; settings: Homo sapiens, IST-MES1
Description: SANGER: Inhibition of human IST-MES1 cell growth in a cell viability assay.

CAL-27 = format: functional, cell-based, Homo sapiens; settings: Homo sapiens, CAL-27
Description: SANGER: Inhibition of human CAL-27 cell growth in a cell viability assay.

UACC-257 = format: functional, cell-based, Homo sapiens; settings: Homo sapiens, UACC-257
Description: SANGER: Inhibition of human UACC-257 cell growth in a cell viability assay.

BHY = format: functional, cell-based, Homo sapiens; settings: Homo sapiens, BHY
Description: SANGER: Inhibition of human BHY cell growth in a cell viability assay.

RPMI-8866 = format: functional, cell-based; settings: Homo sapiens
Description: SANGER: Inhibition of human RPMI-8866 cell growth in a cell viability assay.

QIMR-WIL = format: functional, cell-based; settings: Homo sapiens
Description: SANGER: Inhibition of human QIMR-WIL cell growth in a cell viability assay.

IST-MEL1 = format: functional, cell-based, Homo sapiens; settings: Homo sapiens, IST-MEL1
Description: SANGER: Inhibition of human IST-MEL1 cell growth in a cell viability assay.

NCI-H1651 = format: functional, cell-based, Homo sapiens; settings: Homo sapiens, NCI-H1651
Description: SANGER: Inhibition of human NCI-H1651 cell growth in a cell viability assay.

HuP-T4 = format: functional, cell-based, Homo sapiens; settings: Homo sapiens, HuP-T4
Description: SANGER: Inhibition of human HuP-T4 cell growth in a cell viability assay.

MCF7 = format: functional, cell-based, Homo sapiens; settings: Homo sapiens, MCF7
Description: SANGER: Inhibition of human MCF7 cell growth in a cell viability assay.

COR-L23 = format: functional, cell-based, Homo sapiens; settings: Homo sapiens, COR-L23
Description: SANGER: Inhibition of human COR-L23 cell growth in a cell viability assay.

COR-L105 = format: functional, cell-based, Homo sapiens; settings: Homo sapiens, COR-L105
Description: SANGER: Inhibition of human COR-L105 cell growth in a cell viability assay.

COR-L88 = format: functional, cell-based; settings: Homo sapiens
Description: SANGER: Inhibition of human COR-L88 cell growth in a cell viability assay.

M059J = format: functional, cell-based, Homo sapiens; settings: Homo sapiens, M059J
Description: SANGER: Inhibition of human M059J cell growth in a cell viability assay.

COLO-668 = format: functional, cell-based, Homo sapiens; settings: Homo sapiens, COLO-668
Description: SANGER: Inhibition of human COLO-668 cell growth in a cell viability assay.

MFM-223 = format: functional, cell-based, Homo sapiens; settings: Homo sapiens, MFM-223
Description: SANGER: Inhibition of human MFM-223 cell growth in a cell viability assay.

EW-24 = format: functional, cell-based; settings: Homo sapiens
Description: SANGER: Inhibition of human EW-24 cell growth in a cell viability assay.

EFO-27 = format: functional, cell-based, Homo sapiens; settings: Homo sapiens, EFO-27
Description: SANGER: Inhibition of human EFO-27 cell growth in a cell viability assay.

EW-1 = format: functional, cell-based, Homo sapiens; settings: Homo sapiens, EW-1
Description: SANGER: Inhibition of human EW-1 cell growth in a cell viability assay.

A 172 = format: functional, cell-based, Homo sapiens; settings: Homo sapiens, A 172
Description: SANGER: Inhibition of human A172 cell growth in a cell viability assay.

BFTC-905 = format: functional, cell-based, Homo sapiens; settings: Homo sapiens, BFTC-905
Description: SANGER: Inhibition of human BFTC-905 cell growth in a cell viability assay.

LNCaP-Clone-FGC = format: functional, cell-based, Homo sapiens; settings: Homo sapiens, LNCaP-Clone-FGC
Description: SANGER: Inhibition of human LNCaP-Clone-FGC cell growth in a cell viability assay.

SCC-25 = format: functional, cell-based, Homo sapiens; settings: Homo sapiens, SCC-25
Description: SANGER: Inhibition of human SCC-25 cell growth in a cell viability assay.

HuP-T3 = format: functional, cell-based, Homo sapiens; settings: Homo sapiens, HuP-T3
Description: SANGER: Inhibition of human HuP-T3 cell growth in a cell viability assay.

CAPAN-1 = format: functional, cell-based, Homo sapiens; settings: Homo sapiens, CAPAN-1
Description: SANGER: Inhibition of human CAPAN-1 cell growth in a cell viability assay.

GMS-10 = format: functional, cell-based, Homo sapiens; settings: Homo sapiens, GMS-10
Description: SANGER: Inhibition of human GMS-10 cell growth in a cell viability assay.

EW-18 = format: functional, cell-based; settings: Homo sapiens
Description: SANGER: Inhibition of human EW-18 cell growth in a cell viability assay.

NCI-H1304 = format: functional, cell-based; settings: Homo sapiens
Description: SANGER: Inhibition of human NCI-H1304 cell growth in a cell viability assay.

NB69 = format: functional, cell-based, Homo sapiens; settings: Homo sapiens, NB69
Description: SANGER: Inhibition of human NB69 cell growth in a cell viability assay.

## Cn1cncc1[C@@](N)(c1ccc(Cl)cc1)c1ccc2c(c1)c(-c1cccc(Cl)c1)cc(=O)n2C [TIPIFARNIB]
U-118-MG
  IC50: > 16000 nM
SK-MEL3
  IC50: 4980 nM
SW1417
  IC50: > 16000 nM
NCI-H358
  IC50: 4920 nM
ABC-1
  IC50: 3210 nM
MLMA
  IC50: > 16000 nM
NCI-H23
  IC50: > 16000 nM
NB6
  IC50: > 16000 nM
SK-N-FI
  IC50: > 16000 nM
HDLM-2
  IC50: > 16000 nM
CCRF-CEM
  IC50: 1640 nM
SW1463
  IC50: > 16000 nM
SNU-387
  IC50: 7060 nM
OVCAR-8
  IC50: 4450 nM
NCI-H209
  IC50: > 16000 nM
U2OS
  IC50: > 16000 nM
KYSE-180
  IC50: 3370 nM
TE-10
  IC50: 812 nM
NCI-H1355
  IC50: 974 nM
TE-5
  IC50: 11900 nM
GAMG
  IC50: 8920 nM
IST-MES1
  IC50: 14600 nM
CAL-27
  IC50: 3100 nM
UACC-257
  IC50: > 16000 nM
BHY
  IC50: 1050 nM
RPMI-8866
  IC50: > 16000 nM
QIMR-WIL
  IC50: 16.3 nM
IST-MEL1
  IC50: 2820 nM
NCI-H1651
  IC50: > 16000 nM
HuP-T4
  IC50: 3030 nM
MCF7
  IC50: 166 nM
COR-L23
  IC50: 13800 nM
COR-L105
  IC50: 7240 nM
COR-L88
  IC50: > 16000 nM
M059J
  IC50: > 16000 nM
COLO-668
  IC50: 3390 nM
MFM-223
  IC50: > 16000 nM
EW-24
  IC50: > 16000 nM
EFO-27
  IC50: 714 nM
EW-1
  IC50: 12300 nM
A 172
  IC50: 10100 nM
BFTC-905
  IC50: 1880 nM
LNCaP-Clone-FGC
  IC50: 11500 nM
SCC-25
  IC50: 5910 nM
HuP-T3
  IC50: > 16000 nM
CAPAN-1
  IC50: > 16000 nM
GMS-10
  IC50: > 16000 nM
EW-18
  IC50: 458 nM
NCI-H1304
  IC50: > 16000 nM
NB69
  IC50: > 16000 nM

## CCC1=C[C@@H]2CN(C1)Cc1c([nH]c3ccccc13)[C@@](C(=O)OC)(c1cc3c(cc1OC)N(C)[C@H]1[C@@](O)(C(=O)OC)[C@H](OC(C)=O)[C@]4(CC)C=CCN5CC[C@]31[C@@H]54)C2 [VINORELBINE]
U-118-MG
  IC50: > 64 nM
SK-MEL3
  IC50: 17.3 nM
SW1417
  IC50: > 64 nM
NCI-H358
  IC50: 5.89 nM
ABC-1
  IC50: 3.02 nM
MLMA
  IC50: 36.9 nM
NCI-H23
  IC50: 60.1 nM
NB6
  IC50: > 64 nM
SK-N-FI
  IC50: > 64 nM
HDLM-2
  IC50: 15.9 nM
CCRF-CEM
  IC50: 4.56 nM
SW1463
  IC50: > 64 nM
SNU-387
  IC50: 10.2 nM
OVCAR-8
  IC50: 6.6 nM
NCI-H209
  IC50: 50.8 nM
U2OS
  IC50: > 64 nM
KYSE-180
  IC50: 7.13 nM
TE-10
  IC50: 3.62 nM
NCI-H1355
  IC50: 2.9 nM
TE-5
  IC50: 11.7 nM
GAMG
  IC50: 13 nM
IST-MES1
  IC50: > 64 nM
CAL-27
  IC50: 32 nM
UACC-257
  IC50: 30.4 nM
BHY
  IC50: 9.95 nM
RPMI-8866
  IC50: 7 nM
QIMR-WIL
  IC50: 3.04 nM
IST-MEL1
  IC50: > 64 nM
NCI-H1651
  IC50: 60.6 nM
HuP-T4
  IC50: 37.3 nM
MCF7
  IC50: 5.01 nM
COR-L23
  IC50: 9.89 nM
COR-L105
  IC50: 30.9 nM
COR-L88
  IC50: 34.8 nM
M059J
  IC50: 14.1 nM
COLO-668
  IC50: 28.5 nM
MFM-223
  IC50: > 64 nM
EW-24
  IC50: > 64 nM
EFO-27
  IC50: 5.79 nM
EW-1
  IC50: 3.93 nM
A 172
  IC50: 13.9 nM
BFTC-905
  IC50: 3.62 nM
LNCaP-Clone-FGC
  IC50: 17.9 nM
SCC-25
  IC50: 12.5 nM
HuP-T3
  IC50: > 64 nM
CAPAN-1
  IC50: 14.2 nM
GMS-10
  IC50: > 64 nM
EW-18
  IC50: 7.05 nM
NCI-H1304
  IC50: 35.2 nM
NB69
  IC50: 45.5 nM
